ChEMBL document CHEMBL2021859, “Practical access to four stereoisomers of naftidrofuryl and their binding affinity towards 5-hydroxytryptamine 2A receptor” (Bioorg Med Chem Lett, 2012)
Counter-ions that a name gives are not always drawn.

Molecular target: 5-hydroxytryptamine receptor 2A (Homo sapiens, UniProt P28223)
Assay: Displacement of [3H]ketanserin from 5HT2A receptor expressed in HEK293 cells by liquid scintillation spectrophotometry
Assay type: cell-based

5-hydroxytryptamine receptor 2A, sequence (P28223 whole entry): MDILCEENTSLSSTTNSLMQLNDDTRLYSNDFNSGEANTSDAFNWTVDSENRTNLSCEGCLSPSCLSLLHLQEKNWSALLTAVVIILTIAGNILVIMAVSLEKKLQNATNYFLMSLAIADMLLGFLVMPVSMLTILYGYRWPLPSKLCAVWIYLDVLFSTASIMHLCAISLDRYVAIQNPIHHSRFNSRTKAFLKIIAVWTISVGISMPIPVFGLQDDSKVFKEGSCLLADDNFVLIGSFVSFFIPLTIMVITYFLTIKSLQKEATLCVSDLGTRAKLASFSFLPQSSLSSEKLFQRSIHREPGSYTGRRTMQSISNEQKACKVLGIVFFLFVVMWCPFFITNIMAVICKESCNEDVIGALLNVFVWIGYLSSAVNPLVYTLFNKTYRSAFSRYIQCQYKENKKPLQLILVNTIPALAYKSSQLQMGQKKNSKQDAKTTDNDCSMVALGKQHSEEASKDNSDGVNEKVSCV

| Compound | Ki (read-out: Ki) [µM] | Ki (read-out: pKi (converted)) [µM] |
| --- | --- | --- |
| CCN(CC)CCOC(=O)[C@@H](Cc1cccc2ccccc12)C[C@@H]1CCCO1 | 0.153 | 0.282 |
| CCN(CC)CCOC(=O)[C@H](Cc1cccc2ccccc12)C[C@@H]1CCCO1 | 0.972 | 1.7 |

The remaining lines, values ahead:

| Ki (read-out: Ki) [µM] | Ki (read-out: pKi (converted)) [µM] | Compound |
| --- | --- | --- |
| 2.07 | 2.29 | CCN(CC)CCOC(=O)[C@H](Cc1cccc2ccccc12)C[C@H]1CCCO1 |
| 0.15 | 0.145 | CCN(CC)CCOC(=O)[C@@H](Cc1cccc2ccccc12)C[C@H]1CCCO1 |
| 0.256 | 0.331 | CCN(CC)CCOC(=O)C(Cc1cccc2ccccc12)CC1CCCO1 (stereo not given) [NAFRONYL OXALATE] |
